# Experimental data from patent US4965280A, “Antifungal carbinols” (E. I. Du Pont de Nemours and Company, priority 1989, dated 1990).
# Legend:
# Assay in all cases: Test F
# REDROOT PIGWEED = format: in vivo, Amaranthus retroflexus
# From the text: (§1) Weed species were planted 3 or 4 per 15-cm diameter pot in Sassafras sandy loam (pH 6.8; 1% OM). Cotton was planted separately in the same sized pot. Postemergence plantings were made 12-16 days prior to treating so plants were in the 2- to 3-leaf stage (5-12 cm tall). Preemergence plantings were made the day before treating. Compounds were sprayed in a suitable non-phytotoxic solvent at 374 l/ha, then after 3 weeks of growth in a greenhouse, plant responses were visually rated on a percent scale where 0=no injury and 100=plant death.
# LAMBSQUARTER = format: in vivo, Chenopodium album
# From the text: as §1
# PRICKLY SIDA = format: in vivo, Sida spinosa
# From the text: as §1
# CMN PURSLANE = format: in vivo, Portulaca oleracea
# From the text: as §1
# IVY MORNINGGLORY = format: in vivo, Ipomoea hederacea
# From the text: as §1
compound,measurement,setting,value
"C=C(c1ccc(F)cc1)C(O)(Cn1cncn1)c1ccc(F)cc1F (stereo not shown) [Example 4, 2-(2,4-Difluorophenyl)-3-(4-fluorophenyl)-1-(1H-1,2,4-triazol-1-yl)-3-buten-2-ol]",plant response,REDROOT PIGWEED; PREEMERGENCE 0032 GM/HA,50%
same,plant response,REDROOT PIGWEED; PREEMERGENCE 0064 GM/HA,70%
same,plant response,REDROOT PIGWEED; PREEMERGENCE 0125 GM/HA,60%
same,plant response,REDROOT PIGWEED; PREEMERGENCE 0250 GM/HA,100%
same,plant response,REDROOT PIGWEED; PREEMERGENCE 0500 GM/HA,100%
same,plant response,LAMBSQUARTER; PREEMERGENCE 0032 GM/HA,0%
same,plant response,LAMBSQUARTER; PREEMERGENCE 0064 GM/HA,20%
same,plant response,LAMBSQUARTER; PREEMERGENCE 0125 GM/HA,20%
same,plant response,LAMBSQUARTER; PREEMERGENCE 0250 GM/HA,60%
same,plant response,LAMBSQUARTER; PREEMERGENCE 0500 GM/HA,70%
same,plant response,PRICKLY SIDA; PREEMERGENCE 0032 GM/HA,0%
same,plant response,PRICKLY SIDA; PREEMERGENCE 0064 GM/HA,0%
same,plant response,PRICKLY SIDA; PREEMERGENCE 0125 GM/HA,0%
same,plant response,PRICKLY SIDA; PREEMERGENCE 0250 GM/HA,100%
same,plant response,PRICKLY SIDA; PREEMERGENCE 0500 GM/HA,90%
same,plant response,CMN PURSLANE; PREEMERGENCE 0032 GM/HA,0%
same,plant response,CMN PURSLANE; PREEMERGENCE 0064 GM/HA,20%
same,plant response,CMN PURSLANE; PREEMERGENCE 0125 GM/HA,30%
same,plant response,CMN PURSLANE; PREEMERGENCE 0250 GM/HA,30%
same,plant response,CMN PURSLANE; PREEMERGENCE 0500 GM/HA,80%
same,plant response,IVY MORNINGGLORY; PREEMERGENCE 0032 GM/HA,0%
same,plant response,IVY MORNINGGLORY; PREEMERGENCE 0064 GM/HA,0%
same,plant response,IVY MORNINGGLORY; PREEMERGENCE 0125 GM/HA,0%
same,plant response,IVY MORNINGGLORY; PREEMERGENCE 0250 GM/HA,0%
same,plant response,IVY MORNINGGLORY; PREEMERGENCE 0500 GM/HA,0%
